In patent US20070213278A1, “Arrays with cleavable linkers” (priority 2004, published 2007):
Marks after values point to notes of the source that are not given here.

Tests used:
[1] = test system: 2G12 anti-HIV antibody; assay: 2G12 binding to glycan array printed on glass slide; design: species or system human; conditions: for Rel. spec. (relative binding activity of 2G12): glycan array on glass slide, 2G12 pre-complexed with anti-IgG-FITC; for 2G12 binding on glycan array: initial experiments
Text: The natural high mannose type N-glycans used for the analysis were purified from pronase treated bovine ribonuclease B on Dionex. Each preparation was a single molecular weight species as determined by MALDI-MS.
Construction of a glycan array printed on a glass slide: The library of carbohydrate structures was obtained through chemical and chemo-enzymatic synthesis as described above, as well as natural sources. This compound library contained a N-hydroxy succinimide (NHS)-reactive primary amino group, which was printed on a commercial NHS-activated glass surface (Accelr8 Technology Corporation, Denver, Colo.) using a microarray gene printer (TSRI).
Each glycan type was printed (≈0.5 nL/spot) at various concentrations (10-100 μM) and each concentration in a replicate of six. Slides were further incubated with ethanolamine buffer to deactivate remaining NHS functional groups.
The 2G12 antibody was pre-complexed (for 10 min) with secondary human anti-IgG-FITC (2:1, 20 μg/mL) prior to application to the glycan array. After incubation with the 2G12 antibodies, the array washed by dipping the slide in buffer and water.

[2] = target: T1, chST6GalNAc-I (Gallus gallus, UniProt Q92183); assay: chST6GalNAc-I activity on small acceptor molecules; format: biochemical, chicken; conditions: α-D-galacto derivatives as acceptors
T1 construct: made in house; host or cells: insect cells
T1 sequence (Q92183 whole entry): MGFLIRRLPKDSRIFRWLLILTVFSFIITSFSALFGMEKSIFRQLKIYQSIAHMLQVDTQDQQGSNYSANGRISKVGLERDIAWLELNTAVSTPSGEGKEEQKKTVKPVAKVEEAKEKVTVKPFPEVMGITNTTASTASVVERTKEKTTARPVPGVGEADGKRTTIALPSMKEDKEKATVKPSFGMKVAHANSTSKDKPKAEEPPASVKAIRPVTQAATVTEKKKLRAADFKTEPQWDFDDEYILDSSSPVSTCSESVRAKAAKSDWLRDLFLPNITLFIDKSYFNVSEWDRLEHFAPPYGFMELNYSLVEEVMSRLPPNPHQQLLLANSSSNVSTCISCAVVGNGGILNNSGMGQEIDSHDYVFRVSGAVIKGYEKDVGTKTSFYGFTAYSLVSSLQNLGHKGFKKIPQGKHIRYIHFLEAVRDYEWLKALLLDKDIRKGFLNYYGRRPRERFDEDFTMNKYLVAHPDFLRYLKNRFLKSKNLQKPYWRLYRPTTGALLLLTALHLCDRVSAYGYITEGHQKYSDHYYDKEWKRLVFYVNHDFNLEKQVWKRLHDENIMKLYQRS
Text: The inventors have previously reported the cloning, expression, and characterization of chicken ST6GalNAc-I and its use in preparative synthesis of the O-linked sialoside antigens, STn-, α(2-6)SiaT-, α(2-3)SiaT- and Di-SiaT-antigen. Blixt, O.; Allin, K.; Pereira, L.; Datta, A. and Paulson, J. C., J. Am. Chem. Soc. 2002, 124, 5739-5746. Briefly, the recombinant enzyme was expressed in insect cells and purified by CDP-sepharose affinity chromatography to generate approximately 10 U/L of cell culture.

[3] = test system: 2G12 antibody; assay: Carbohydrate microarray analysis, microtiter plate, oligomannose-2G12 dissociation constants (Example 11); format: binding, human; conditions: microtiter plate array
Description: Carbohydrate microarray analysis. Ninety-six well NHS-coated microtiter plates (NoAb Biodiscoveries) were treated with 200 μL of a 1 mM methanolic solution of the amino-functionalized disulfide and alkyne containing linker (scheme V) containing 5% diisopropylethylamine (DIEA) and incubated overnight at 4° C. The microtiter plate was then washed with 2×200 μL methanol and 2×200 μL water. Next, 200 μL solutions of azido-functionalized oligomannose derivatives 21-25 at varying concentrations from 0 to 500 μM in 5% DIEA/methanol were introduced. A sprinkle of copper (I) iodide was added and the contents were allowed to react overnight at 4° C. The next day, the contents were removed and the plates were washed with 2×200 μL methanol and 2×200 μL water. The plates were then blocked with 0.1% Tween20 solution in HEPES buffer pH 7.5 at 4° C. for 1 hour and then washed with 3×200 μL HEPES buffer. […] Detection of the FITC-tagged secondary antibody was performed in 200 μL water using a fluorescence plate reader. […]
Carbohydrate Microarray Analysis. […] Kd values for the interaction of 2G12 with oligomannoses 4, 5, 7, 8, 9 (Table 9) were determined using a microtiter-based assay with detection via a fluorescent secondary antibody (see Bryan et al.(2004) J. Am. Chem. Soc. 126, 8640-41).

[4] = target: 2G12 antibody; assay: 2G12 binding, cleavable linker glycan array in microtiter plates (Example 10); design: species or system human; conditions: for 2G12 epitope / affinity: cleavable linker array
Description: Cleavable Linker Glycan Array in Microtiter Plates: Further experiments were performed using glycans immobilized within microtiter wells with the cleavable triazole linkers described in Example 7 as shown in FIG. 11.
2G12 Binding: After washing with QH2O, wells were blocked with 10 mM HEPES buffer, pH 7.5/150 mM NaCl buffer (200 μL) containing 0.1% Tween-20 over 1 h at 4° C. The buffer was then removed and 2G12 (17 μg/mL PBS buffer; 200 μL) was incubated in the well over 1 h at 4° C. Wells were then washed with PBS buffer (3×; 200 μL) and fluorescein-conjugated Goat Anti-Human IgG antibody (14 μg/mL PBS buffer; 200 μL) was incubated in the well over 1 h in the dark at 4° C. Wells were then washed with PBS buffer (3×; 200 μL) and fluorescence was measured with an excitation wavelength of 485 nm and emission wavelength of 535 nm.
Further studies were performed using a cleavable linker array to clarify the types of mannose-containing glycans bound by the 2G12 anti-HIV antibodies. […] The results of a binding study using increasing amounts of labeled Manα1,2Manα1,3Manα1,2 Manα1,6Man glycan with a constant amount of 2G12 antibody are shown in FIG. 16.

[5] = test system: 2G12 binding to gp120JR-CSF; assay: Solution phase ELISA, oligomannose inhibition of 2G12 binding to gp120; design: species or system human; conditions: oligomannose at 0.5 mM
Description: Enzyme-linked immunosorbent assay. Microtiter plate wells (flat bottom, Costar type 3690; Corning Inc.) were coated with 50 ng/well gp120JR-CSF overnight at 4° C. All subsequent steps were performed at room temperature. The wells were then washed four times with PBS/0.05% (vol/vol) Tween20 (Sigma) using a microplate washer (SkanWash 400, Molecular Devices) prior to blocking for 1 hr with 3% (mass/vol) BSA. IgG 2G12, diluted to 0.5 μg/mL (25 ng/well) with 1% (mass/vol) BSA/0.02% (vol/vol) Tween20/PBS (PBS-BT), was then added for 2 hrs to the antigen-coated wells in the presence of serially-diluted oligomannoses starting at 2 mM.
Unbound antibody was removed by washing four times, as described above. Bound 2G12 was detected with an alkaline phosphatase-conjugated goat anti-human IgG F(ab′)2 antibody (Pierce) diluted 1:1000 in PBS-BT. After 1 hr, the wells were washed four times and bound antibody was visualized with p-nitrophenol phosphate substrate (Sigma) and monitored at 405 nm.
Solution Phase ELISA Assay Analysis of Oligomannose 1-8 Inhibition of 2G12 Binding. Man9GlcNAc2 1 and deprotected oligomannoses 2-6 and 7-9 (see FIG. 17) were evaluated for their ability to inhibit the interaction between 2G12 and gp120 in a solution phase enzyme-linked immunosorbent assay (ELISA). […]

OCC1O[C@@H](O)C(O)[C@@H](O)[C@@H]1O[C@@H]1OC(CO)[C@H](O)[C@H](O)C1O (some centres unmarked) [Compound 4]
Rel. spec. (relative binding activity of 2G12) [1]: − (− = <1000)
chST6GalNAc-I activity, cpm [2]: 3043 cpm
chST6GalNAc-I activity, nmol/mg × min^−1 [2]: 2.90 nmol/mg × min^−1

O=[N+]([O-])c1ccc(O[C@@H]2OC(CO)[C@@H](O[C@@H]3OC(CO)[C@H](O)[C@H](O)C3O)[C@H](O)C2O)cc1 (some centres unmarked) [Compound 5]
Rel. spec. (relative binding activity of 2G12) [1]: − (− = <1000)
chST6GalNAc-I activity, cpm [2]: 1421 cpm
chST6GalNAc-I activity, nmol/mg × min^−1 [2]: 1.30 nmol/mg × min^−1

CC(=O)N[C@H]1C(O)O[C@H](CO)[C@@H](O[C@@H]2O[C@H](CO)[C@H](O)[C@H](O)[C@H]2O)[C@@H]1O (some centres unmarked) [Compound 6]
Rel. spec. (relative binding activity of 2G12) [1]: − (− = <1000)
chST6GalNAc-I activity, cpm [2]: 13277 cpm
chST6GalNAc-I activity, nmol/mg × min^−1 [2]: 12.50* nmol/mg × min^−1

CC(=O)N[C@H]1C(O)O[C@H](CO)[C@H](O)[C@@H]1O (stereo partly drawn) [D-GalNAc, reference compound]
chST6GalNAc-I activity, nmol/mg × min^−1 [2]: 0.00 nmol/mg × min^−1

NCCCCCO[C@H]1O[C@H](CO[C@H]2O[C@H](CO)[C@@H](O)[C@H](O)[C@@H]2O[C@H]2O[C@H](CO)[C@@H](O)[C@H](O)[C@@H]2O)[C@@H](O)[C@H](O[C@H]2O[C@H](CO)[C@@H](O)[C@H](O)[C@@H]2O[C@H]2O[C@H](CO)[C@@H](O)[C@H](O)[C@@H]2O)[C@@H]1O [Oligomannose 5]
2G12 binding affinity [3]: greatest affinity

Man-8#aa Man8-aminoacid [Glycan 144]
2G12 binding on glycan array [1]: Binding was observed

Man-9#aa Man9-aminoacid [Glycan 145]
2G12 binding on glycan array [1]: smaller level of binding

Manα1,2 Manα1,2Manα1,3Man
Kd ([4]; binding to 2G12, cleavable linker array): 100 nM
2G12 epitope / affinity [4]: optimal epitope(s) with micromolar affinity to 2G12

Manα1,2Manα1,3Manα1,2 Manα1,6Man
2G12 epitope / affinity [4]: optimal epitope(s) with micromolar affinity to 2G12

Oligomannose 3
inhibition (%) of 2G12 binding to gp120 [5]: 15.8%
